Assay results: patent WO2019242687A1, “1,3-dioxane-4,6-dione compound, and preparation method, pharmaceutical composition, and application thereof” (Shanghai Institute of Materia Medica of CAS, priority 2018, dated 2018)

Biological target: T1, SIRT1 D348A (Homo sapiens, UniProt Q96EB6, D348A)
T1 construct: made in house
T1 sequence (Q96EB6 1-747 D348A): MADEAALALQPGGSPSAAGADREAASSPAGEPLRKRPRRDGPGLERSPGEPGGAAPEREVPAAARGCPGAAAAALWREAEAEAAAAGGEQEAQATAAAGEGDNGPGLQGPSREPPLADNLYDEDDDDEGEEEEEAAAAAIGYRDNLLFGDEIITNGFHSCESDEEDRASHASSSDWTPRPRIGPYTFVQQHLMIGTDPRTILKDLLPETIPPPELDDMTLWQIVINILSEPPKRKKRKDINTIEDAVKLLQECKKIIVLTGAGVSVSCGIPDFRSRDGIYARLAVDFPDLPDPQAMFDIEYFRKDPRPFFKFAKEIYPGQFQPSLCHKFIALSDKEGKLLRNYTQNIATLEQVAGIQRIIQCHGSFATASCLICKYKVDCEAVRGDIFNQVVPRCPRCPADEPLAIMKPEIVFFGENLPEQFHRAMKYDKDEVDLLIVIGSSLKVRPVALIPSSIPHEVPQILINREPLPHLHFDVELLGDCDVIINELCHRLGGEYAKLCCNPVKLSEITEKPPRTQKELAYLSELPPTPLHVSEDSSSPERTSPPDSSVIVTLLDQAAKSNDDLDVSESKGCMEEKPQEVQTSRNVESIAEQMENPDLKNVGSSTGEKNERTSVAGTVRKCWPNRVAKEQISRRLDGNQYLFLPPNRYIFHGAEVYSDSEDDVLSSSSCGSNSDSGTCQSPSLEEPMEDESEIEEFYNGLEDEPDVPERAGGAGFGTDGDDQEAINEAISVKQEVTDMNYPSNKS
Experiment: Inhibitory constant on SIRT1 mutant D348A
Assay type: biochemical

COc1cc(C=C2C(=O)OC(c3ccccc3)OC2=O)cc(Br)c1O (stereo not shown) [Compound S3, 5-(3-bromo-4-hydroxy-5-methoxybenzylidene) -2-phenyl-1,3-dioxane-4,6-dione]
Ki: 4.33 µM
